# Reference: US20150225404A1, “PYRIDINE DERIVATIVE AND MEDICINE” (NIPPON SHINYAKU CO., LTD., priority 2012, published 2015)
# Where a name gives a salt, the structure may show the parent alone.
# Molecular target: T1, human mGluR5 (Homo sapiens, UniProt P41594)
# T1 construct: expressed in transfected cells
# Assay: Experiment for receptor function of mGluR5 (Ca2+-dependent fluorescence, FLIPR, CHO-K1 cells stably expressing human mGluR5)
# Assay type: cell-based
# Conditions: L-glutamic acid 10 μM, Fluo-4 fluorescence
# Description: Stable expression cells in which the human mGluR5 gene had been introduced into a Chinese hamster ovary cell (CHO-K1) were used for evaluation. The cells were suspended in a growth medium (MEM-α (D8042, available from Sigma) containing 10% inactivated FBS (Cat. No. 171012, available from CCB) and 2 mM glutamax (Cat. No. 35050, available from GIBCO)) and seeded on a black clear-bottom 96-well plate at 100,000 cells per well. One day after seeding, the medium was replaced by a medium (Hanks' balanced salt solution (HBSS buffer solution) (20 mM HEPES, 2.5 mM probencide (165-15472, available from Wako Pure Chemical Industries, Ltd.), and 10×HBSS (14065-056, available from Gibco) diluted 10 times, pH 7.4)) containing a calcium-sensitive dye Fluo-4 AM at a final concentration of […] (F312, available from Dojindo Laboratories) and Pluronic F-127 at a final concentration of 0.0145% (P-2443, available from Sigma), followed by incubation at 37° C. for one hour, thereby loading Fluo-4 AM into the cells.
# Subsequently, the cells were washed twice with an HBSS buffer solution, to which was subsequently added the same buffer solution. Twenty minutes thereafter, the plate was transferred into a fluorescence screening system (FLIPR TETRA, available from Molecular Devices, LLC) and measured for a Ca^2+-dependent fluorescence change in the cells.
# First of all, a fluorescence baseline was measured, and thereafter, fluorescence measurement was performed for 2 minutes while adding a test substance, an excessive amount of 6-methyl-2-(phenylethynyl)pyridine (hereinafter referred to as “MPEP”) (final concentration: 10 μM), or the medium. Thereafter, fluorescence measurement was carried out for one minute while adding L-glutamic acid (final concentration: 10 μM).
# While taking a fluorescence intensity caused by L-glutamic acid as 100% and a fluorescence intensity caused by L-glutamic acid in the presence of MPEP as 0%, respectively, function inhibitory activity against human mGluR5 was evaluated from the fluorescence intensity caused by L-glutamic acid in the presence of the test substance at each concentration, and an IC50 value was estimated according to a logistic equation (SAS System).
# T1 sequence (P41594 21-1212): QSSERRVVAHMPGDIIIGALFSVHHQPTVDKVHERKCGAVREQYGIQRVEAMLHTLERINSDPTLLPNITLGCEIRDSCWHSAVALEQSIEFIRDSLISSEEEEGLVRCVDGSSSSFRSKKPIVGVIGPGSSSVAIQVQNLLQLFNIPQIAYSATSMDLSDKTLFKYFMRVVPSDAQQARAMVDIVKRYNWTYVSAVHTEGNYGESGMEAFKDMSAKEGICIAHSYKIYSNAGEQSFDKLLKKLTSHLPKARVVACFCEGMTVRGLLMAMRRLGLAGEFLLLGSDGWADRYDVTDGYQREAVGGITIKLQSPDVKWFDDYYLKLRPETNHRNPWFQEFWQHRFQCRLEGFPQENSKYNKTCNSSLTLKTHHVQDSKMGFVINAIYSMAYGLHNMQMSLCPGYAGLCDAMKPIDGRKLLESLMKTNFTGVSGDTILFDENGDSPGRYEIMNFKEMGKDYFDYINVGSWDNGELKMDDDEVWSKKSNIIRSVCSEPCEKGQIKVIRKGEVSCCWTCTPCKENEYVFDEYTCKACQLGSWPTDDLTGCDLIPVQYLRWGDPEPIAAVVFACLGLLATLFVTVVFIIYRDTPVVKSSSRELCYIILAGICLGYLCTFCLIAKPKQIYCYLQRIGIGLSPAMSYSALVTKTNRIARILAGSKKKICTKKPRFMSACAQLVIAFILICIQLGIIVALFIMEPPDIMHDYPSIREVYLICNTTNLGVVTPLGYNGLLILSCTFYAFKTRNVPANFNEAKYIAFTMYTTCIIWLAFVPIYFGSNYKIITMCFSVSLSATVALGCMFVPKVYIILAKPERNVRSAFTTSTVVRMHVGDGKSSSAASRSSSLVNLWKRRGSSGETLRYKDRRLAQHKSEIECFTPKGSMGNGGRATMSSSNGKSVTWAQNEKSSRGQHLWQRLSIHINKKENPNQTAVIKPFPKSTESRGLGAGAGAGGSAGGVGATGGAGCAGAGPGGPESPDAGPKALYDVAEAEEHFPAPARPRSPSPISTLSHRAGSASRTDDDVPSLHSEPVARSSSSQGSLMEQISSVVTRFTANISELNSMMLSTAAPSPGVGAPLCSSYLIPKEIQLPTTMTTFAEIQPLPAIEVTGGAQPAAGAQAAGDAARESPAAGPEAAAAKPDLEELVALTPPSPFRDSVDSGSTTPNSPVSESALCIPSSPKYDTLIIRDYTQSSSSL
row,SMILES,IC50
1,"c1ccc(COc2cc(-c3cnccn3)c3c(n2)CCCC3)nc1 [Example 194, 4-(Pyrazin-2-yl)-2-(pyridin-2-ylmethoxy)-5,6,7,8-tetrahydroquinoline hydrochloride]",0.0114 µM
2,"Clc1cnc(-c2cc(OCc3ccccn3)nc3c2CCCC3)cn1 [Example 196, 4-(5-Chloropyrazin-2-yl)-2-(pyridin-2-ylmethoxy)-5,6,7,8-tetrahydroquinoline hydrochloride]",0.17 µM
3,"Fc1nccnc1-c1cc(OCc2ccccn2)nc2c1CCCC2 [Example 200, 4-(3-Fluoropyrazin-2-yl)-2-(pyridin-2-ylmethoxy)-5,6,7,8-tetrahydroquinoline hydrochloride]",0.144 µM
4,"COc1cncc(-c2cc(OCc3ccccn3)nc3c2CCCC3)n1 [Example 205, 4-(6-Methoxypyrazin-2-yl)-2-(pyridin-2-ylmethoxy)-5,6,7,8-tetrahydroquinoline hydrochloride]",0.093 µM
5,"Nc1cncc(-c2cc(OCc3ccccn3)nc3c2CCCC3)n1 [Example 206, 6-[2-(Pyridin-2-ylmethoxy)-5,6,7,8-tetrahydroquinolin-4-yl]pyrazin-2-amine hydrochloride]",0.0365 µM
6,"CNc1cncc(-c2cc(OCc3ccccn3)nc3c2CCCC3)n1 [Example 208, N-Methyl-6-[2-(pyridin-2-ylmethoxy)-5,6,7,8-tetrahydroquinolin-4-yl]pyrazin-2-amine hydrochloride]",0.125 µM
7,"Fc1ccnc(-c2cc(OCc3ccccn3)nc3c2CCCC3)c1 [Example 223, 4-(4-Fluoropyridin-2-yl)-2-(pyridin-2-ylmethoxy)-5,6,7,8-tetrahydroquinoline]",0.0473 µM
8,"c1ccc(COc2cc(-c3cncs3)c3c(n2)CCCC3)nc1 [Example 224, 2-(Pyridin-2-ylmethoxy)-4-(1,3-thiazol-5-yl)-5,6,7,8-tetrahydroquinoline]",0.0256 µM
9,"Cc1ncc(-c2cc(OCc3ccccn3)nc3c2CCCC3)s1 [Example 225, 4-(2-Methyl-1,3-thiazol-5-yl)-2-(pyridin-2-ylmethoxy)-5,6,7,8-tetrahydroquinoline hydrochloride]",0.102 µM
10,"c1ccc(COc2cc(-c3cccnc3)c3c(n2)CCCCC3)nc1 [Example 232, 4-(Pyridin-3-yl)-2-(pyridin-2-ylmethoxy)-6,7,8,9-tetrahydro-5H-cyclohepta[b]pyridine]",0.0289 µM
11,"N#Cc1ccc(COc2cc(-c3cncc(CO)c3)c3c(n2)CCC3)cc1 [Example 247, 4-[({4-[5-(Hydroxymethyl)pyridin-3-yl]-6,7-dihydro-5H-cyclopenta[b]pyridin-2-yl}oxy)methyl]benzonitrile]",0.052 µM
12,"OCc1cncc(-c2cc(OCc3cccc(F)c3)nc3c2CCC3)c1 [Example 249, (5-{2-[(3-Fluorobenzyl)oxy]-6,7-dihydro-5H-cyclopenta[b]pyridin-4-yl}pyridin-3-yl)methanol]",0.053 µM
13,"N#Cc1cccc(COc2cc(-c3cncc(CO)c3)c3c(n2)CCC3)c1 [Example 253, 3-[({4-[5-(Hydroxymethyl)pyridin-3-yl]-6,7-dihydro-5H-cyclopenta[b]pyridin-2-yl}oxy)methyl]benzonitrile]",0.08 µM
14,"Nc1ncc(-c2cc(OCc3ccccn3)nc3c2CCC3)cn1 [Example 259, 5-[2-(Pyridin-2-ylmethoxy)-6,7-dihydro-5H-cyclopenta[b]pyridin-4-yl]pyrimidin-2-amine hydrochloride]",0.0273 µM
15,"Cc1cc(COc2cc(-c3cnc(C)nc3)c3c(n2)CCC3)ccn1 [Example 262, 2-[(2-Methylpyridin-4-yl)methoxy]-4-(2-methylpyrimidin-5-yl)-6,7-dihydro-5H-cyclopenta[b]pyridine]",0.082 µM
16,"Nc1ncc(-c2cc(OCc3cccc(F)c3)nc3c2CCC3)cn1 [Example 263, 5-{2-[(3-Fluorobenzyl)oxy]-6,7-dihydro-5H-cyclopenta[b]pyridin-4-yl}pyrimidin-2-amine]",0.111 µM
17,"N#Cc1cccc(COc2cc(-c3cnc(N)nc3)c3c(n2)CCC3)c1 [Example 265, 3-({[4-(2-Aminopyrimidin-5-yl)-6,7-dihydro-5H-cyclopenta[b]pyridin-2-yl]oxy}methyl)benzonitrile]",0.0468 µM

# More lines, in order of falling IC50, values ahead:
row,IC50,SMILES
1,0.346 µM,"Nc1cnc(-c2cc(OCc3ccccn3)nc3c2CCCC3)cn1 [Example 207, 5-[2-(Pyridin-2-ylmethoxy)-5,6,7,8-tetrahydroquinolin-4-yl]pyrazin-2-amine]"
2,0.23 µM,"OCc1cncc(-c2cc(OCc3ccccn3)nc3c2CCCC3)n1 [Example 204, {6-[2-(Pyridin-2-ylmethoxy)-5,6,7,8-tetrahydroquinolin-4-yl]pyrazin-2-yl}methanol]"
3,0.126 µM,"N#Cc1ccc(COc2cc(-c3cnc(N)nc3)c3c(n2)CCC3)cc1 [Example 264, 4-({[4-(2-Aminopyrimidin-5-yl)-6,7-dihydro-5H-cyclopenta[b]pyridin-2-yl]oxy}methyl)benzonitrile]"
4,0.095 µM,"OCc1cncc(-c2cc(OCc3ccc(F)cc3)nc3c2CCC3)c1 [Example 248, (5-{2-[(4-Fluorobenzyl)oxy]-6,7-dihydro-5H-cyclopenta[b]pyridin-4-yl}pyridin-3-yl)methanol]"
5,0.0943 µM,"N#Cc1cccc(COc2cc(-c3ccnc(F)c3)c3c(n2)CCC3)c1 [Example 251, 3-({[4-(2-Fluoropyridin-4-yl)-6,7-dihydro-5H-cyclopenta[b]pyridin-2-yl]oxy}methyl)benzonitrile]"
6,0.0937 µM,"Clc1nccnc1-c1cc(OCc2ccccn2)nc2c1CCCC2 [Example 197, 4-(3-Chloropyrazin-2-yl)-2-(pyridin-2-ylmethoxy)-5,6,7,8-tetrahydroquinoline hydrochloride]"
7,0.064 µM,"Cc1ncc(-c2cc(OCc3ccc(C#N)cc3)nc3c2CCC3)cn1 [Example 261, 4-({[4-(2-Methylpyrimidin-5-yl)-6,7-dihydro-5H-cyclopenta[b]pyridin-2-yl]oxy}methyl)benzonitrile]"
8,0.0628 µM,"Cc1cc(COc2cc(-c3cncnc3)c3c(n2)CCC3)ccn1 [Example 256, 2-[(2-Methylpyridin-4-yl)methoxy]-4-(pyrimidin-5-yl)-6,7-dihydro-5H-cyclopenta[b]pyridine]"
9,0.043 µM,"CCc1cncc(-c2cc(OCc3ccccn3)nc3c2CCCC3)n1 [Example 202, 4-(6-Ethylpyrazin-2-yl)-2-(pyridin-2-ylmethoxy)-5,6,7,8-tetrahydroquinoline]"
10,0.0414 µM,"c1ccc(COc2cc(-c3cnccn3)c3c(n2)CCCCC3)nc1 [Example 234, 4-(Pyrazin-2-yl)-2-(pyridin-2-ylmethoxy)-6,7,8,9-tetrahydro-5H-cyclohepta[b]pyridine hydrochloride]"
11,0.039 µM,"N#Cc1cccc(COc2cc(-c3cccnc3)c3c(n2)CCC3)c1 [Example 245, 3-({[4-(Pyridin-3-yl)-6,7-dihydro-5H-cyclopenta[b]pyridin-2-yl]oxy}methyl)benzonitrile]"
12,0.0362 µM,"Cc1cncc(-c2cc(OCc3ccccn3)nc3c2CCCC3)n1 [Example 201, 4-(6-Methylpyrazin-2-yl)-2-(pyridin-2-ylmethoxy)-5,6,7,8-tetrahydroquinoline]"
13,0.0345 µM,"C=C1CCc2c(-c3cncnc3)cc(OCc3ccccn3)nc21 [Example 237, 7-Methylidene-2-(pyridin-2-ylmethoxy)-4-(pyrimidin-5-yl)-6,7-dihydro-5H-cyclopenta[b]pyridine]"
14,0.0245 µM,"Fc1cncc(-c2cc(OCc3ccccn3)nc3c2CCCC3)n1 [Example 199, 4-(6-Fluoropyrazin-2-yl)-2-(pyridin-2-ylmethoxy)-5,6,7,8-tetrahydroquinoline hydrochloride]"
15,0.0243 µM,"Clc1cncc(-c2cc(OCc3ccccn3)nc3c2CCCC3)n1 [Example 195, 4-(6-Chloropyrazin-2-yl)-2-(pyridin-2-ylmethoxy)-5,6,7,8-tetrahydroquinoline]"
16,0.024 µM,"CCC1CCc2c(-c3cncnc3)cc(OCc3ccccn3)nc21 (stereo not drawn) [Example 240, 7-Ethyl-2-(pyridin-2-ylmethoxy)-4-(pyrimidin-5-yl)-6,7-dihydro-5H-cyclopenta[b]pyridine]"
17,0.0135 µM,"N#Cc1ccc(COc2cc(-c3ccnc(F)c3)c3c(n2)CCC3)nc1 [Example 252, 6-({[4-(2-Fluoropyridin-4-yl)-6,7-dihydro-5H-cyclopenta[b]pyridin-2-yl]oxy}methyl)pyridine-3-carbonitrile]"
18,0.0106 µM,"N#Cc1ccc(COc2cc(-c3cncc(F)c3)c3c(n2)CCC3)nc1 [Example 250, 6-({[4-(5-Fluoropyridin-3-yl)-6,7-dihydro-5H-cyclopenta[b]pyridin-2-yl]oxy}methyl)pyridine-3-carbonitrile]"
19,0.0101 µM,"N#Cc1ccc(COc2cc(-c3cncnc3)c3c(n2)CCC3)cc1 [Example 258, 4-({[4-(Pyrimidin-5-yl)-6,7-dihydro-5H-cyclopenta[b]pyridin-2-yl]oxy}methyl)benzonitrile]"
